The experiment deals with T1, tRNA (guanine-N(1)-)-methyltransferase (Haemophilus influenzae (strain ATCC 51907 / DSM 11121 / KW20 / Rd), UniProt P43912).
T1 sequence (P43912 whole entry): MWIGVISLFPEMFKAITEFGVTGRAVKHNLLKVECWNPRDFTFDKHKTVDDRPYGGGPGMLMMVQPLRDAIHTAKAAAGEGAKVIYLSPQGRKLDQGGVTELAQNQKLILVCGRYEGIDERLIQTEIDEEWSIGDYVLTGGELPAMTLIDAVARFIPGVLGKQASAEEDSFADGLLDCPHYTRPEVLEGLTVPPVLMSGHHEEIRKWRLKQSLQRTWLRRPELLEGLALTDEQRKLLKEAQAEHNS
Briefly: ScintillationProximity_Assay. The text has this:
ScintillationProximity_Assay
With `c1cc(-c2c[nH]cn2)ccn1`, half-maximal inhibition (IC50) required 158 µM.
As to `NC(=O)c1ccc(NCc2ccccc2)nc1` [GTC000444A], the IC50 (as a rule, the midpoint of a concentration-inhibition curve) came out at 3.16 µM.
Consider `NC(=O)c1ccc(N)nc1` [GTC000445A], for which the IC50 was found to be 25.1 µM.
Compound `c1cc(-c2ncc[nH]2)ccn1` [GTC000447A] showed a half-maximal inhibitory concentration (IC50) of 316 µM.
With `Nc1nonc1C(=O)NCc1ccc(Cl)cc1` [GTC000448A] the figure was 39.8 µM.
`CC(C)(C)c1cccc(C(=O)NCC2(NC(=O)c3cccc4nocc34)CCCCC2)c1` [GTC000449A]: the half-inhibitory concentration (IC50) is 0.00501 µM.
`CC(C)(C)c1cccc(C(=O)NCC2(NC(=O)c3cccc4nocc34)CCCC2)c1` [GTC000450A] returned a half-inhibitory concentration (IC50) of 0.00501 µM.
The compound `Cc1cccc(C(=O)NCC2(NC(=O)c3cccc4nocc34)CCCC2)c1` [GTC000451A] returned an IC50 of 0.158 µM.
The compound `NC(=O)c1ccc(NCc2cccc(O)c2)nc1` [GTC000452A] returned a half-maximal inhibitory concentration (IC50) of 2 µM.
The compound `CN(C)c1cccc(CNc2ccc(C(N)=O)cn2)c1` [GTC000453A] yielded an IC50 of 3.98 µM.
With `COc1ccccc1CNc1ccc(C(N)=O)cn1` [GTC000454A] the figure was 0.794 µM.
With `CN(C)c1ccccc1CNc1ccc(C(N)=O)cn1` [GTC000455A] the figure was 6.31 µM.
Compound `Nc1nonc1C(=O)N[C@@H]1CC[C@H](O)C1` [GTC000456A] returned an IC50 of 7.94 µM.
As for `NC(=O)c1ccc(NC2CCCC2)nc1` [GTC000457A], inhibition was half-maximal at 0.2 µM (IC50).
The compound `NC(=O)c1ccc(NCC2CCCC2)nc1` [GTC000458A] returned a half-inhibitory concentration (IC50) of 0.501 µM.
With `NC(=O)c1ccc(NCc2ccccc2O)nc1` [GTC000459A], the IC50 turned out to be 1.26 µM.
For the compound `NC(=O)c1ccc(N[C@@H]2CC[C@@H](O)C2)nc1` [GTC000460A], the IC50 stood at 0.2 µM.
Take `Cc1cccc(C(=O)NCCC2(CNc3ccc(C(N)=O)cn3)CCCCC2)c1` [GTC000461A]: the IC50 was 7.94 µM.
On to `Nc1nonc1C(=O)NCC1CCCCC1` [GTC000462A], for which the IC50 stood at 2 µM.
`Nc1nonc1C(=O)N1CCN(Cc2ccccn2)CC1` [GTC000463A] returned a half-maximal inhibitory concentration (IC50) of 15.8 µM.
Consider `NC(=O)c1cnc(NC2CCCC2)nc1N` [GTC000464A], for which the IC50 came to 0.631 µM.
The compound `Nc1nonc1C(=O)NC1CCNCC1` [GTC000465A] displayed a concentration for half-maximal inhibition (IC50) of 20 µM.
With `Nc1nonc1C(=O)N[C@@H]1C[C@H]1c1ccc(S(N)(=O)=O)cc1` [GTC000466A], the IC50 was 15.8 µM.
`NC(=O)c1ccc(NC2CCC(c3ccccc3)C2)nc1` (stereo unspecified) [GTC000467A] had a half-inhibitory concentration (IC50) of 0.631 µM.
In turn, `NC(=O)c1ccc(N[C@@H]2C[C@H](CO)[C@@H](O)C2)nc1` [GTC000468A] had a half-maximal inhibitory concentration (IC50) of 1.59 µM.
In the case of `NC[C@H]1CCC[C@@H](CNc2ccc(C(N)=O)cn2)C1` [GTC000469A] it was 0.501 µM; in that of `NC(=O)c1ccc(NCc2ccccc2N2CCOCC2)nc1` [GTC000470A], 2 µM.
`CN1CCN(c2ccccc2CNc2ccc(C(N)=O)cn2)CC1` [GTC000471A]: the IC50 turned out to be 0.794 µM.
As to `CN1CCN(C(=O)c2nonc2N)CC1` [GTC000472A], the IC50 turned out to be 100 µM.
With `COc1ccc(C(=O)n2ncnc2N)cc1` [GTC000473A], the IC50 was 2.51 µM.
Compound `CC(C)(C)CNc1ncc(C(N)=O)c(N)n1` [GTC000474A] showed a concentration for half-maximal inhibition (IC50) of 0.794 µM.

The record behind these values is BindingDB's records for doi:10.7270/Q2833QWM (D3R/Abbott, 2015).
